Values joined by “and” are separate entries in the source; they are usually repeats but may differ in a detail not shown here. Equal values may be shown once. “Also recorded” adds a separate entry of the source. Read-outs that look alike come from different tables or passages of the source.
Tests used:
[1] = tested on: Lewis rats transplanted with an accessory heart from allogeneic disparate BN donor rats; assay type: in vivo
Description: Lewis rats were transplanted with an accessory heart from the allogeneic disparate BN donor rats. […] Combination of pretreatment with GA and the respective doses of the immunosuppressants (open bars); Treatment with GA administered from the day of transplantation without pretreatment (striped bar). Cardiac allograft survival was inspected by daily monitoring palpation of the grafts. Grafts were considered rejected when no heart palpitations could be observed.

[2] = tested on: BALB/c recipient mice transplanted with skin grafts from C57BL donors; details: for mean survival time (MST) of skin graft / prolongation of skin graft survival: FIG. 3 experiment
Protocol: BALB/c mice were transplanted with skin grafts from C57BL/6 donors. […] Grafts were considered rejected when no viable donor epidermis remained. At least 7 mice were tested in each group.
Skin transplantation is an established model to measure immune rejection. In this model recipient and donor mice were anesthetized, shaved and cleaned. Circular pieces of skin (1.0 to 1.3 cm in diameter) were cut from dorsal side of the donor mice and dorsally transplanted to recipient animals by the use of histoacryl (Braun, Melsungen, Germany). The grafts were covered with Nobecutane antiseptic spray bandage (Astra, Wedel, Germany). Mice were kept in separate cages and inspected daily. Grafts were considered rejected when no viable donor epidermis remained.
Three murine strain combinations: B10.D2→BALB/c in the H-2^d haplotype, C57BL→C3HSW in the H-2^b haplotype, and B10PL→PL/J in the H-2^u haplotype, were tested across minor histocompatibility barriers, and across major histocompatibility barriers transplantation was tested in C57BL→BALB/c in the H-2^b→H-2^d haplotype. These strain combinations were tested with Copolymer 1 both using skin and thyroid transplantations.
BALB/c recipient mice were transplanted with skin grafts originated in C57BL donors in day 0. GA (100 mg/kg, s.c.) was injected daily starting 2 weeks before transplantation. […] Rejection was considered positive when no viable donor epidermis remained.

[3] = tested on: thyroid glands from B10.D2 donors transplanted in the kidney's capsules of BALB/c mice; assay: Function of transplanted thyroids (I125 absorbance), B10.D2→BALB/c model; assay type: in vivo, mouse; details: for MFI (mean function index): fold over PBS
Protocol: (§1) In this transplantation model for HVG, thyroid glands from donor mice were transplanted in the kidney's capsules of recipient mice. One week later the transplanted mice were injected with ^125I, and the radioactivity of each kidney (the recipient or the untransplanted kidney) was measured after 20 hours. Δcpm was calculated by subtracting the ^125I absorbance of the untransplanted kidneys from the ^125I absorbance of the recipient kidneys in the same treatment. The mean function index (MFI) for treatment was calculated by dividing the mean Δcpm for the tested treatment by the mean Δcpm for the PBS treatment. P values were obtained by the ANOVA test. This assay indicates objectively and quantitatively not only the graft survival, but also the function (iodine absorbance) of the transplanted thyroid tissue (Isakov et al., 1979).
(§2) The transplanted mice or rats were treated daily with Copolymer 1 at doses of 0.6-2.5 mg/day for mice and 25 mg/day for rats in PBS solution, starting 7 or 14 days before transplantation. In some cases, the first Cop 1 treatment was injected sc in ICFA as a depot dose.
To test the effect of Copolymer 1 treatment on the function of transplanted thyroids in the B10.D2→BALB/c model, thyroid glands from donors B10.D2 were transplanted in the kidney's capsules of BALB/c mice. After one week the transplanted mice were injected with I^125, and the radioactivity of each kidney was measured 20 hours later. A cpm was calculated by subtracting the I^125 absorbance of the untransplanted kidneys from the I^125 absorbance of the recipient kidneys in the same treatment. The mean function index (MFI) for each treatment was calculated by dividing the mean I^125 absorbance of (transplanted kidney—untransplanted kidney) in the tested treatment by the mean I^125 absorbance of (transplanted kidney—untransplanted kidney) in the PBS treatment, as follows: [formula]

[4] = tested on: thyroid glands from C57BL mice transplanted in the kidney capsule of BALB/c mice; assay: Function of transplanted thyroids (I125 absorbance), C57BL→BALB/c model; assay type: in vivo, mouse
Protocol: as §1
BALB/c recipient mice were transplanted in the kidney's capsules with thyroid glands from donor mice in day 0. Grafts were inspected daily. The function (iodine absorbance) of the transplanted thyroid tissue was examined 10 days after transplantation by measuring the iodine absorbance in the kidney.
Thyroid glands from C57BL mice were transplanted in the kidney capsule of BALB/c mice. Nine days after transplantation, mice were injected with 1 μcI^125, and the radioactivity of each kidney was measured 20 hr. later. MFI—denotes the mean function index, calculated as
MFI=mean Δcpm for the tested treatment/mean Δcpm for the PBS tested treatment

[5] = tested on: BALB/c recipient mice transplanted with skin grafts from B10.D2 donors; assay: Skin graft rejection, B10.D2→BALB/c model; assay type: in vivo, mouse
Protocol: (§3) Mice were kept in separate cages and inspected daily.
as §2
To test the effect of Copolymer 1 treatment on skin graft rejection in the B10.D2→BALB/c model, BALB/c recipient mice were transplanted with skin grafts from B10.D2 donors and were treated daily with: PBS ip from day −7, Copolymer 1 (ip+sc) from day −7. Grafts were inspected daily.
Grafts were inspected daily. […] Thyroid glands from B10.D2 donors were transplanted in the kidney's capsules of BALB/c mice.

[6] = tested on: C57BL→C3H thyroid graft; assay: Thyroid rejection (I125 absorbance), C57BL→C3H (H-2b); assay type: in vivo, mouse; details: Cop 1
Protocol: as §1, §2

[7] = tested on: B10PL→PL/J skin graft; assay: Skin graft rejection, B10PL→PL/J (H-2u); assay type: in vivo, mouse; details: Cop 1
Protocol: as §3, §2

[8] = tested on: B10PL→PL/J thyroid graft; assay: Thyroid rejection (I125 absorbance), B10PL→PL/J; assay type: in vivo, mouse; details: Cop 1
Protocol: as §1, §2

[9] = tested on: C57BL→C3HSW skin graft; assay: Skin graft rejection, C57BL→C3HSW (H-2b); assay type: in vivo, mouse; details: Cop 1
Protocol: as §3, §2

[10] = FK 506 300 μg/day ip, 7 times from day −2
[11] = Cop 1 600 μg/day ip from day −7
[12] = Cop 1, another experiment (N=5)
[13] = Cop 1 2.5 mg/mouse, Table 7 Part 1
[14] = Cop 1 2.5 mg/mouse, Table 7 Part 2
[15] = Cop 1, C57BL → BALB (H-2b → H-2d), Table 5

## C=CC[C@@H]1/C=C(\C)C[C@H](C)C[C@H](OC)[C@H]2O[C@@](O)(C(=O)C(=O)N3CCCC[C@H]3C(=O)O[C@H](/C(C)=C/[C@@H]3CC[C@@H](O)[C@H](OC)C3)[C@H](C)[C@@H](O)CC1=O)[C@H](C)C[C@@H]2OC [FK 506, tacrolimus]
[1]; FK 506 1.25 mg/kg alone
  Prolongation: 15.3 days
[1]; FK 506 1.25 mg/kg daily from 6 days before transplantation, alone, 1.25 mg/kg
  MST (Mean Graft Survival Time) of heart graft: 22.5 days and 22.5 ± 0.9 days
[1]; FK 506 2.5 mg/kg alone
  Prolongation: 18.3 days
[1]; FK 506 2.5 mg/kg alone, 2.5 mg/kg
  MST (Mean Graft Survival Time) of heart graft: 25.5 days and 25.5 ± 1.4 days
[1]; FK 506 2.5 mg/kg, 2.5 mg/kg
  toxicity in rats: toxic consequences
[1]; FK506 5 mg/kg
  death of rats after number of daily injections: 6-8 daily injections
[1]; FK 506 5.0 mg/kg, 5 mg/kg
  toxicity in rats: toxic consequences; also recorded: toxic all rats died
[2]; FK 506 5 mg/kg
  mean survival time (MST) of skin graft: 9.5 days
  prolongation of skin graft survival: 12%
[2]; FK 506 10 mg/kg
  mean survival time (MST) of skin graft: 13.8 days
  prolongation of skin graft survival: 88%
[2]; FK 506 1.25 mg/kg alone
  Prolongation: 8%
[2]; FK 506 1.25 mg/kg i.m. daily from 6 days before transplantation, alone
  MST (Mean Graft Survival Time): 11.2 days
[2]; FK 506 2.5 mg/kg alone
  MST (Mean Graft Survival Time): 11.8 days
  Prolongation: 13%
[2]; FK 506 5.0 mg/kg alone
  MST (Mean Graft Survival Time): 12.7 days
  Prolongation: 22%
[2]; FK 506 10 mg/kg alone
  MST (Mean Graft Survival Time): 16.0 days
  Prolongation: 54%
[2]; higher dose, FK 506 10 mg/kg, average
  mortality: 20 % of the mice
[2]; mouse, in vivo, 10 mg/kg
  toxic effect on the mice: considerable weight loss and weakness
[3]; [10]
  Mean I^125 Absorption, Transplanted Kidney: 3117 cpm
  Δcpm (transplanted minus untransplanted kidney): 2424 cpm
[3]; FK 506 300 μg/day
  MFI (mean function index): 3.1
[4]; FK506 1.25 mg/kg
  MFI: 3.1
  Mean I^125 Absorbance, Transplanted kidney: 928 ± 165 cpm
  Δcpm: 327 cpm
[4]; FK506 2.5 mg/kg
  MFI: 4.1
  Mean I^125 Absorbance, Transplanted kidney: 772 ± 519 cpm
  Δcpm: 431 cpm
[4]; FK506 5 mg/kg
  MFI: 3.7
  Mean I^125 Absorbance, Transplanted kidney: 1167 ± 636 cpm
  Δcpm: 383 cpm
[5]; FK506 300 μg/day ip, 7 injections from day −2
  MST (Mean Survival Time) of skin graft: 21.2 days
[5]; FK506 300 μg/day ip, 7 injections from day −2, listed as FK506
  MST (Mean Survival Time) of skin graft: 21.2 ± 4.3 days

## glatiramer acetate [Cop 1]
[6]
  MFI (mean function index): 2.3
  Mean I^125 Absorption, Transplanted Kidney: 1643 cpm
  Δcpm: 1362 cpm
[1]; GA 100 mg/kg alone, vs untreated control
  Prolongation: 0.4 days
[1]; GA 100 mg/kg daily from 2 weeks before transplantation, alone
  MST (Mean Graft Survival Time) of heart graft: 7.6 ± 0.5 days
[1]; GA treatment by itself
  effect on heart graft survival: did not prolong graft survival
[2]; Cop 1, listed as printed C57BL→C3HSW (H-2b → H-2d)
  MST (Mean Survival Time) of skin graft: 18.5 ± 3.3
[2]; GA 100 mg/kg
  prolongation of skin graft survival: 27%
[2]; GA 100 mg/kg, untreated control 8.5 days
  mean survival time (MST) of skin graft: 10.8 days
[2]; GA 100 mg/kg alone, Table 6A
  Prolongation: 10%
[2]; GA 100 mg/kg alone, Table 6B
  MST (Mean Graft Survival Time): 11.5 days
  Prolongation: 11%
[2]; GA 100 mg/kg injected daily
  appearance of mice: looked completely healthy
[2]; GA 100 mg/kg s.c. daily from 2 weeks before transplantation, alone, Table 6A
  MST (Mean Graft Survival Time): 12.3 days
[3]; [11]
  Mean I^125 Absorption, Transplanted Kidney: 2901 cpm
  Δcpm (transplanted minus untransplanted kidney): 2451 cpm
[3]; Cop 1 600 ug/day, another experiment (N=5)
  MFI (mean function index): 5.2
[3]; Cop 1 600 μg/day
  MFI (mean function index): 3.2
[3]; [12]
  Mean I^125 Absorption, Transplanted Kidney: 1035 cpm
  Δcpm: 898 cpm
[7]
  MST (Mean Survival Time) of skin graft: 17.6 ± 5.1
[8]
  MFI (mean function index): 2.5
  Mean I^125 Absorption, Transplanted Kidney: 2009 cpm
  Δcpm: 1677 cpm
[4]; [13]
  MFI: 3.5
  Mean I^125 Absorbance, Transplanted kidney: 439 ± 31 cpm
  Δcpm: 122 cpm
[4]; [14]
  MFI: 2.4
  Mean I^125 Absorbance, Transplanted kidney: 671 ± 24 cpm
  Δcpm: 247 cpm
[4]; [15]
  MFI (mean function index): 3.0
  Mean I^125 Absorption, Transplanted Kidney: 10759 cpm
  Δcpm: 9835 cpm
[9]
  MST (Mean Survival Time) of skin graft: 17.7 ± 2.1
[5]; Cop 1 300 μg/day ip+sc daily from day −7
  MST (Mean Survival Time) of skin graft: 20.4 ± 4.5 days
[5]; Cop 1 300 μg/day ip+sc daily from day −7, listed as Copolymer 1
  MST (Mean Survival Time) of skin graft: 20.4 days
[5]; Cop 1 600 μg/day ip+sc daily from day −7
  MST (Mean Survival Time) of skin graft: 20.6 days and 20.6 ± 3.3 days
[5]; Cop 1 600 μg/day ip+sc daily from day −7, listed as Copolymer 1
  MST (Mean Survival Time) of skin graft: 20.6 days
